Here are results for six cell lines from the supplement of paper PMC10307832.

Common to all, as to experiment: relative viability (nuclei count vs DMSO), 5 days (fraction); higher = more cells survive
Compound in assay [1]: CN(c1ncccc1CNc1nc(Nc2ccc3c(c2)CC(=O)N3)ncc1C(F)(F)F)S(C)(=O)=O + Cc1nc(Nc2ncc(C(=O)Nc3c(C)cccc3Cl)s2)cc(N2CCN(CCO)CC2)n1 [Dasatinib] (partner 0.075 µM)
In a few lines:
(§1)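 Relative viability divides the nuclei count in treated wells by that in vehicle wells. Lung cancer cell lines were seeded in 1536-well plates, dosed by pin tool the next day, and fixed and stained after 5 days in one step with final 0.05% Triton X-100, 1% formaldehyde and 1 ug/ml Hoechst. Dosing was a single drug or a fixed anchor-drug dose plus five library-drug doses (not always all listed) in √10 steps, and values are medians of duplicate plates imaged at 4×.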

Compound in assay [2]: CN(c1ncccc1CNc1nc(Nc2ccc3c(c2)CC(=O)N3)ncc1C(F)(F)F)S(C)(=O)=O + CC(=O)c1c(C)c2cnc(Nc3ccc(N4CCNCC4)cn3)nc2n(C2CCCC2)c1=O [Palbociclib] (partner 0.5 µM)
The procedure, abridged: as §1

Compound in assay [3]: CN(c1ncccc1CNc1nc(Nc2ccc3c(c2)CC(=O)N3)ncc1C(F)(F)F)S(C)(=O)=O + Cc1nc(NC(=O)N2CCC[C@H]2C(N)=O)sc1-c1ccnc(C(C)(C)C(F)(F)F)c1 [Alpelisib] (partner 2 µM)
The procedure, abridged: as §1

Compound in assay [4]: CN(c1ncccc1CNc1nc(Nc2ccc3c(c2)CC(=O)N3)ncc1C(F)(F)F)S(C)(=O)=O + CC(C)C[C@H](NC(=O)[C@H](Cc1ccccc1)NC(=O)c1cnccn1)B(O)O [Bortezomib] (partner 0.002 µM)
The procedure, abridged: as §1

Consider LOU-NH91, for which the relative viability in assay [1] (first compound 0.01 µM) was determined as 0.56; in assay [1] (first compound 0.03162 µM) it was 0.526; in assay [1] (first compound 0.1 µM), 0.491; in assay [1] (first compound 0.3162 µM) it was 0.501; in assay [1] (first compound 1 µM) it was 0.448; in assay [2] (first compound 0.01 µM), 0.521. Also, the relative viability in assay [2] (first compound 0.03162 µM) amounted to 0.512; in assay [2] (first compound 0.1 µM), 0.534; in assay [2] (first compound 0.3162 µM), 0.52; in assay [2] (first compound 1 µM) it was 0.492; in assay [3] (first compound 0.01 µM) it was 0.75; in assay [3] (first compound 0.03162 µM), 0.792. The relative viability amounted to 0.703 in assay [3] (first compound 0.1 µM); 0.771 in assay [3] (first compound 0.3162 µM); 0.762 in assay [3] (first compound 1 µM); 0.497 in assay [4] (first compound 0.01 µM); 0.47 in assay [4] (first compound 0.03162 µM); 0.482 in assay [4] (first compound 0.1 µM). Besides, the relative viability in assay [4] (first compound 0.3162 µM) was 0.482; in assay [4] (first compound 1 µM), 0.459.
On to NCI-H2347, for which the relative viability in assay [1] (first compound 0.01 µM) worked out at 0.283; in assay [1] (first compound 0.03162 µM) it was 0.313; in assay [1] (first compound 0.1 µM) it was 0.331; in assay [1] (first compound 0.3162 µM) it was 0.297; in assay [1] (first compound 1 µM), 0.283; in assay [2] (first compound 0.01 µM), 0.434. Further, the relative viability came to 0.389 in assay [2] (first compound 0.03162 µM); 0.426 in assay [2] (first compound 0.1 µM); 0.354 in assay [2] (first compound 0.3162 µM); 0.377 in assay [2] (first compound 1 µM); 1.06 in assay [3] (first compound 0.01 µM); 0.973 in assay [3] (first compound 0.03162 µM). Moreover, the relative viability was 0.893 in assay [3] (first compound 0.1 µM); 0.972 in assay [3] (first compound 0.3162 µM); 0.817 in assay [3] (first compound 1 µM); 1.08 in assay [4] (first compound 0.01 µM); 0.93 in assay [4] (first compound 0.03162 µM); 0.927 in assay [4] (first compound 0.1 µM). In addition, the results for the relative viability in assay [4] (first compound 0.3162 µM) and in assay [4] (first compound 1 µM) were 0.801 and 0.45, respectively.
Consider NCI-H2126, for which the relative viability in assay [1] (first compound 0.01 µM) is 0.55; in assay [1] (first compound 0.03162 µM) it was 0.559; in assay [1] (first compound 0.1 µM), 0.469; in assay [1] (first compound 0.3162 µM), 0.381; in assay [1] (first compound 1 µM) it was 0.347; in assay [2] (first compound 0.01 µM), 0.358. The relative viability in assay [2] (first compound 0.03162 µM) came out at 0.351; in assay [2] (first compound 0.1 µM) it was 0.308; in assay [2] (first compound 0.3162 µM), 0.352; in assay [2] (first compound 1 µM), 0.306; in assay [3] (first compound 0.01 µM), 0.717; in assay [3] (first compound 0.03162 µM), 0.739. Moreover, the relative viability in assay [3] (first compound 0.1 µM) was 0.742; in assay [3] (first compound 0.3162 µM) it was 0.743; in assay [3] (first compound 1 µM), 0.641; in assay [4] (first compound 0.01 µM) it was 1.12; in assay [4] (first compound 0.03162 µM), 1.1; in assay [4] (first compound 0.1 µM), 1.04. For the same cell line, the relative viability in assay [4] (first compound 0.3162 µM) and in assay [4] (first compound 1 µM) was 1.1 throughout.
With HCC-827, the relative viability in assay [1] (first compound 0.01 µM) was 0.191; in assay [1] (first compound 0.03162 µM), 0.185; in assay [1] (first compound 0.1 µM), 0.115; in assay [1] (first compound 0.3162 µM), 0.107; in assay [1] (first compound 1 µM), 0.109; in assay [2] (first compound 0.01 µM), 0.453. In addition, the relative viability was determined as 0.462 in assay [2] (first compound 0.03162 µM); 0.503 in assay [2] (first compound 0.1 µM); 0.545 in assay [2] (first compound 0.3162 µM); 0.437 in assay [2] (first compound 1 µM); 1.02 in assay [3] (first compound 0.01 µM); 1.07 in assay [3] (first compound 0.03162 µM). The relative viability in assay [3] (first compound 0.1 µM) worked out at 1.03; in assay [3] (first compound 0.3162 µM), 1.01; in assay [3] (first compound 1 µM), 0.942; in assay [4] (first compound 0.01 µM), 1.1; in assay [4] (first compound 0.03162 µM), 1.06; in assay [4] (first compound 0.1 µM) it was 1.09. Further, the relative viability was 1.02 in assay [4] (first compound 0.3162 µM) and 1.05 in assay [4] (first compound 1 µM).
Consider NCI-H3122, for which the relative viability in assay [1] (first compound 0.01 µM) was 0.802; in assay [1] (first compound 0.03162 µM), 1.02; in assay [1] (first compound 0.1 µM) it was 0.787; in assay [1] (first compound 0.3162 µM), 0.746; in assay [1] (first compound 1 µM), 0.764; in assay [2] (first compound 0.01 µM) it was 0.204. The relative viability is 0.188 in assay [2] (first compound 0.03162 µM); 0.155 in assay [2] (first compound 0.1 µM); 0.202 in assay [2] (first compound 0.3162 µM); 0.149 in assay [2] (first compound 1 µM); 0.748 in assay [3] (first compound 0.01 µM); 0.982 in assay [3] (first compound 0.03162 µM). The relative viability was 0.684 in assay [3] (first compound 0.1 µM); 0.822 in assay [3] (first compound 0.3162 µM); 0.728 in assay [3] (first compound 1 µM); 1.04 in assay [4] (first compound 0.01 µM); 1.03 in assay [4] (first compound 0.03162 µM); 1.01 in assay [4] (first compound 0.1 µM). Besides, the relative viability in assay [4] (first compound 0.3162 µM) is 0.968; in assay [4] (first compound 1 µM), 0.891.
As for HOP-62, the relative viability stood at 0.616 in assay [1] (first compound 0.01 µM); 0.512 in assay [1] (first compound 0.03162 µM); 0.5 in assay [1] (first compound 0.1 µM); 0.301 in assay [1] (first compound 0.3162 µM); 0.301 in assay [1] (first compound 1 µM); 0.469 in assay [2] (first compound 0.01 µM). The relative viability in assay [2] (first compound 0.03162 µM) was 0.444; in assay [2] (first compound 0.1 µM) it was 0.374; in assay [2] (first compound 0.3162 µM), 0.412; in assay [2] (first compound 1 µM), 0.39; in assay [3] (first compound 0.01 µM) it was 0.909; in assay [3] (first compound 0.03162 µM), 1.25. The relative viability amounted to 1.06 in assay [3] (first compound 0.1 µM); 0.84 in assay [3] (first compound 0.3162 µM); 0.772 in assay [3] (first compound 1 µM); 0.839 in assay [4] (first compound 0.01 µM); 0.673 in assay [4] (first compound 0.03162 µM); 0.939 in assay [4] (first compound 0.1 µM). Besides, the relative viability in assay [4] (first compound 0.3162 µM) was determined as 0.803; in assay [4] (first compound 1 µM), 0.911.
